Values of other authors, collected in US20080306069A1, “Pyrazole Derivatives for the Inhibition of CDK'S and GSK'S” (ASTEX THERAPEUTICS LIMITED, priority 2005, published 2008).

Test system: malignant cells from B-cell chronic lymphocytic leukemia (B-CLL)
Details: in vitro

Row | SMILES | apoptosis of malignant B-CLL cells
1 | CC[C@H](CO)Nc1nc(NCc2ccccc2)c2ncn(C(C)C)c2n1 [CYC 202] | induce in vitro apoptosis
2 | CN1CC[C@H](c2c(O)cc(O)c3c(=O)cc(-c4ccccc4Cl)oc23)[C@H](O)C1 [Flavopiridol, flavopiridol] | induce in vitro apoptosis
